According to ChEMBL document CHEMBL5126508, “Therapeutic potential of quinazoline derivatives for Alzheimer's disease: A comprehensive review” (Eur J Med Chem, 2022):

What was measured:
Acetylcholinesterase [1] = target: T1, Acetylcholinesterase (Homo sapiens, UniProt P22303); assay: Inhibition of AChE (unknown origin)
Cholinesterase [2] = target: T2, Cholinesterase (Homo sapiens, UniProt P06276); assay: Inhibition of BuChE (unknown origin)
[3] = target: Cyclin-dependent kinase 1 (Homo sapiens, UniProt P06493); assay: Inhibition of CDK1 (unknown origin)
Sequence of Cyclin-dependent kinase 1 (P06493 whole entry): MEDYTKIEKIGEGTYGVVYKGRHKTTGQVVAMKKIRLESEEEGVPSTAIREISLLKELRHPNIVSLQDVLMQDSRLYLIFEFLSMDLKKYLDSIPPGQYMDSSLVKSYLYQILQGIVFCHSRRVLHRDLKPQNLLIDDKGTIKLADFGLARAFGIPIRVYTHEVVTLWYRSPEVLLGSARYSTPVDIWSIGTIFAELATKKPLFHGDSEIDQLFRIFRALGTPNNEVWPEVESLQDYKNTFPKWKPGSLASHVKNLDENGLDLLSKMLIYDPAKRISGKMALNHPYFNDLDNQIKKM

[4] = target: Cyclin-dependent kinase 2 (Homo sapiens, UniProt P24941); assay: Inhibition of CDK2 (unknown origin)
[5] = target: Cyclin-dependent kinase 3 (Homo sapiens, UniProt Q00526); assay: Inhibition of CDK3 (unknown origin)
[6] = target: Cyclin-dependent kinase 4 (Homo sapiens, UniProt P11802); assay: Inhibition of CDK4 (unknown origin)
Acetylcholinesterase [7] = target: T3, Acetylcholinesterase (Electrophorus electricus, UniProt O42275); assay: Inhibition of electric eel AChE using acetylthiocholine incubated for 30 mins by measuring hydrolysis of substrate by Ellman's method
T3 sequence (O42275 whole entry): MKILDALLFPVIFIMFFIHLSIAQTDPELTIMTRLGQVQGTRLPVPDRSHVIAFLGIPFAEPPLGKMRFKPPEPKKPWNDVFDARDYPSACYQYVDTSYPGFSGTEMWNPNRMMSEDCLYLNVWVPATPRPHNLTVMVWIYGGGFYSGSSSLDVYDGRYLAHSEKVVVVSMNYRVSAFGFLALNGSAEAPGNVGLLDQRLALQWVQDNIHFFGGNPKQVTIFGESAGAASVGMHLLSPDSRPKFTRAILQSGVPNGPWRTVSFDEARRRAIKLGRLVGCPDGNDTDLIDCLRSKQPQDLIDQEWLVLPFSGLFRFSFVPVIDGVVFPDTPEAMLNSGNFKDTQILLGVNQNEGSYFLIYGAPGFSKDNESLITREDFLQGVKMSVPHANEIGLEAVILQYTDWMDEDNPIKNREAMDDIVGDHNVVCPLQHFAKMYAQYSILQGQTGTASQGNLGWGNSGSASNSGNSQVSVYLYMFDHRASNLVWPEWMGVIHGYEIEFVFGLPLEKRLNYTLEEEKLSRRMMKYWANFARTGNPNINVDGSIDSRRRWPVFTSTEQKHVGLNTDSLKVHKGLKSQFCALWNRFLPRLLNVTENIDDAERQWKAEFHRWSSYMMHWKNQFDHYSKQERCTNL

[8] = target: T4, Amyloid-beta precursor protein (Homo sapiens, UniProt P05067); assay: Inhibition of amyloid beta 1 to 42 aggregation in human SH-SY5Y cells; assay type: cell-based
T4 sequence (P05067 whole entry): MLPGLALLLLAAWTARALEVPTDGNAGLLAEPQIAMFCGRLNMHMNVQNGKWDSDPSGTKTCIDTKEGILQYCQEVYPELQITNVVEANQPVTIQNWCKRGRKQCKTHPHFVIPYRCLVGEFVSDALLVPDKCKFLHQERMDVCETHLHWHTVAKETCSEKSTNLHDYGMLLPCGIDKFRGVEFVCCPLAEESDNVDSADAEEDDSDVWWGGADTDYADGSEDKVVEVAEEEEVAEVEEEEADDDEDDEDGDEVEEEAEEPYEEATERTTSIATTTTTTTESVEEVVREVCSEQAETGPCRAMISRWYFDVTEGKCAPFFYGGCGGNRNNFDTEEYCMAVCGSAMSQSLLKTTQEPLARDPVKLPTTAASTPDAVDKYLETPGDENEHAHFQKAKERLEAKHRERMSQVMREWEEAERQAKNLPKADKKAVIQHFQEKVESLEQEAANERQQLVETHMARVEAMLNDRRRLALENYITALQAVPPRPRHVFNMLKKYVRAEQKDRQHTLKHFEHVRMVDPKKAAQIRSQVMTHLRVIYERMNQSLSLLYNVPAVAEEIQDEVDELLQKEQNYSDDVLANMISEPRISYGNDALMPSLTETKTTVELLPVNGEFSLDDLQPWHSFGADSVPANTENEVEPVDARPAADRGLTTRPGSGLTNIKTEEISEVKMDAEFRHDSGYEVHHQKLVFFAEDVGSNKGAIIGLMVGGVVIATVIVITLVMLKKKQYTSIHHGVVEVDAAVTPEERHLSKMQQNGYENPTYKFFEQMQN

[9] = target: T4, Amyloid-beta precursor protein; assay: Inhibition of amyloid beta 1 to 40 aggregation in human SH-SY5Y cells; assay type: cell-based
[10] = target: T5, Cyclin-dependent kinase 5 (Homo sapiens, UniProt Q00535); assay: Inhibition of CDK5 (unknown origin)
Target sequence in this assay (Q00535 whole entry): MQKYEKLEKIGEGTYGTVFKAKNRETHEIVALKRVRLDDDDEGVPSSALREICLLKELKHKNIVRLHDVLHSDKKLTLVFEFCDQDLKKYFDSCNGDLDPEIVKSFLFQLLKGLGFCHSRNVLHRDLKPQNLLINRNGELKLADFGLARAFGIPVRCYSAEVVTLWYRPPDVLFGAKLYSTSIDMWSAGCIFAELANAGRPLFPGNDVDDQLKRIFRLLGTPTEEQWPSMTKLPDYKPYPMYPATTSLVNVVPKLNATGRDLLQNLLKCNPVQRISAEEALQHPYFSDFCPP

[11] = target: T6, Glycogen synthase kinase-3 (Homo sapiens, UniProt P49840+P49841); assay: Inhibition of GSK3alpha/beta (unknown origin); assay type: protein assay
T6 sequence (P49840 whole entry, looked up): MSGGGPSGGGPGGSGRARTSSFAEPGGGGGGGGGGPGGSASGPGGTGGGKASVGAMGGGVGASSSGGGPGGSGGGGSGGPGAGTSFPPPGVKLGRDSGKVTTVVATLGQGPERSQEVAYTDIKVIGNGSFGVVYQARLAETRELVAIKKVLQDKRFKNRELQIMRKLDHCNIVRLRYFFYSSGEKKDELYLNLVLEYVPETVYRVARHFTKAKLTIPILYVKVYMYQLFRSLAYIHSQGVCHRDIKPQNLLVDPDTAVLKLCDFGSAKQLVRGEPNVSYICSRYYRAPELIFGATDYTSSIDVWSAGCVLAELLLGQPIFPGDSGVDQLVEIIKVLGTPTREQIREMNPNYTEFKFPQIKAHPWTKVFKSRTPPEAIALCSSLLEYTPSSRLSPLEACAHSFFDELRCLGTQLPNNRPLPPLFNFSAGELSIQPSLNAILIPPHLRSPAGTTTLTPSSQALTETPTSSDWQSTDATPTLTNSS
T6 sequence (P49841 whole entry, looked up): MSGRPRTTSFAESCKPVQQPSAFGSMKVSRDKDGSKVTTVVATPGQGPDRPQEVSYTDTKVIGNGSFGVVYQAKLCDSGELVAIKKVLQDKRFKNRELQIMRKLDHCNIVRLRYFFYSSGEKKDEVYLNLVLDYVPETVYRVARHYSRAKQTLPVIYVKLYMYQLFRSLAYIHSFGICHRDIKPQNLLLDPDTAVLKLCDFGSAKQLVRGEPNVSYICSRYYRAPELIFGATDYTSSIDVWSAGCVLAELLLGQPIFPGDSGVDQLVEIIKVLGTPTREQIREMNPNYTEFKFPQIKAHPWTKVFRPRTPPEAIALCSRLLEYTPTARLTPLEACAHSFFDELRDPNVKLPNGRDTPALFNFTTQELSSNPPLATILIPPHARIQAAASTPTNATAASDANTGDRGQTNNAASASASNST

[12] = target: T7, Casein kinase I delta/epsilon (Homo sapiens, UniProt P48730+P49674); assay: Inhibition of CK1delta/epsilon (unknown origin); assay type: protein-complex assay
[13] = target: Dual specificity tyrosine-phosphorylation-regulated kinase 1A (Homo sapiens, UniProt Q13627); assay: Inhibition of DYRK1A (unknown origin)
[14] = target: T5, Cyclin-dependent kinase 5; assay: Inhibition of CDK5 (unknown origin) at 1 uM relative to control
Target sequence in this assay (Q00535 whole entry, looked up): as the sequence (Q00535 whole entry) above

[15] = target: T6, Glycogen synthase kinase-3; assay: Inhibition of GSK3alpha/beta (unknown origin) at 1 uM relative to control; assay type: protein assay
Phosphodiesterase 4 = Phosphodiesterase 4 (Homo sapiens, UniProt P27815+Q08499+Q07343+Q08493); assay: Inhibition of PDE4 (unknown origin); assay type: protein assay
[16] = target: 3',5'-cyclic-AMP phosphodiesterase 4D (Homo sapiens, UniProt Q08499); assay: Inhibition of PDE4D2 (unknown origin)
[17] = target: T7, Casein kinase I delta/epsilon; assay: Inhibition of CK1delta/epsilon (unknown origin) at 1 uM relative to control; assay type: protein-complex assay
Cholinesterase [18] = target: T8, Cholinesterase (Equus caballus, UniProt P81908); assay: Inhibition of equine serum BuChE incubated measured after 25 mins by spectrophotometric analysis; assay type: cell-free
T8 sequence (P81908 whole entry): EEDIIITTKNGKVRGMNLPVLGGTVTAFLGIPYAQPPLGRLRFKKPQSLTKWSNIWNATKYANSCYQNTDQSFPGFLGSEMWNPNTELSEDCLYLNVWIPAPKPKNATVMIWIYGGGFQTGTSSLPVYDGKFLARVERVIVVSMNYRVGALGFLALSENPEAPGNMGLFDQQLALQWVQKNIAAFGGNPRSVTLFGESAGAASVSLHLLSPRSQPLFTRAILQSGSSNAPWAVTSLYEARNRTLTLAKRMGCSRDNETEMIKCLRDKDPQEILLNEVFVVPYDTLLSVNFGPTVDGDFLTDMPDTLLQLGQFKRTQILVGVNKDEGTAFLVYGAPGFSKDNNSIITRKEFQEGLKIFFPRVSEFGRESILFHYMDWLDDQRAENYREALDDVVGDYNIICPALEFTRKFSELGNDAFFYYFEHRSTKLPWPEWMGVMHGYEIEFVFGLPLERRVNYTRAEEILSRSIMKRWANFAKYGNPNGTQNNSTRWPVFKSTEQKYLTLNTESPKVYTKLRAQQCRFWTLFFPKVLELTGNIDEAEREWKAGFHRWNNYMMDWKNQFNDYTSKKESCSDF

[19] = Ratio of IC50 for electric eel AChE to ratio of IC50 for equine BuChE
Acetylcholinesterase [20] = target: T1, Acetylcholinesterase; assay: Inhibition of human AChE
Acetylcholinesterase [21] = target: T3, Acetylcholinesterase; assay: Inhibition of electric eel AChE
Cholinesterase [22] = target: T8, Cholinesterase; assay: Inhibition of equine serum BuChE
[23] = Ratio of IC50 for equine BuChE to IC50 for electric eel AChE
[24] = Antioxidant activity assessed as radical scavenging at 100 ug/ml by DPPH assay relative to control; assay type: functional
SH-SY5Y = assay: Cytotoxicity against human SH-SY5Y cells assessed as cell viability at 100 uM relative to control; assay type: functional; conditions: read-out: Activity
Acetylcholinesterase [25] = target: T3, Acetylcholinesterase; assay: Inhibition of electric eel AChE incubated measured after 25 mins by spectrophotometric analysis
Acetylcholinesterase [26] = target: T3, Acetylcholinesterase; assay: Inhibition of electric eel AChE incubated for 25 mins by Ellman's method
Cholinesterase [27] = target: T2, Cholinesterase; assay: Inhibition of BuChE (unknown origin) at 100 uM relative to control
Acetylcholinesterase [28] = target: T1, Acetylcholinesterase; assay: Inhibition of AChE (unknown origin) by Ellman's method
Cholinesterase [29] = target: T2, Cholinesterase; assay: Inhibition of BuChE (unknown origin) by Ellman's method
[30] = target: T9, Amine oxidase [flavin-containing] A (Homo sapiens, UniProt P21397); assay: Inhibition of MAO-A (unknown origin)
T9 sequence (P21397 whole entry): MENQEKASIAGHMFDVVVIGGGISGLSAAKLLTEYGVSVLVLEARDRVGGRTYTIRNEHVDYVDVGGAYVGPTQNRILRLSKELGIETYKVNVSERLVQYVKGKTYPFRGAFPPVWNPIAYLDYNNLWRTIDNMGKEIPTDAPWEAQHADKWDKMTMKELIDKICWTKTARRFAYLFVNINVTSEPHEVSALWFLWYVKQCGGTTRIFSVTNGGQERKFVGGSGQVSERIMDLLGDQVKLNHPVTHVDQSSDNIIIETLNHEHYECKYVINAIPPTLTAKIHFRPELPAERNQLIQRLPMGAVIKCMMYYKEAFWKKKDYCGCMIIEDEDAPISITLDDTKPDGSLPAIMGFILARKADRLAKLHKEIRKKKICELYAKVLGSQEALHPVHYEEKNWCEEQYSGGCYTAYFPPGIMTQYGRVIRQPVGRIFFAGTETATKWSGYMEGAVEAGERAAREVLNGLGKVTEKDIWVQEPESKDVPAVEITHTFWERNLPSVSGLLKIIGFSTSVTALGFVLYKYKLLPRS

[31] = target: T4, Amyloid-beta precursor protein; assay: Inhibition of amyloid beta 1 to 42 (unknown origin) […]

T1 sequence (P22303 whole entry): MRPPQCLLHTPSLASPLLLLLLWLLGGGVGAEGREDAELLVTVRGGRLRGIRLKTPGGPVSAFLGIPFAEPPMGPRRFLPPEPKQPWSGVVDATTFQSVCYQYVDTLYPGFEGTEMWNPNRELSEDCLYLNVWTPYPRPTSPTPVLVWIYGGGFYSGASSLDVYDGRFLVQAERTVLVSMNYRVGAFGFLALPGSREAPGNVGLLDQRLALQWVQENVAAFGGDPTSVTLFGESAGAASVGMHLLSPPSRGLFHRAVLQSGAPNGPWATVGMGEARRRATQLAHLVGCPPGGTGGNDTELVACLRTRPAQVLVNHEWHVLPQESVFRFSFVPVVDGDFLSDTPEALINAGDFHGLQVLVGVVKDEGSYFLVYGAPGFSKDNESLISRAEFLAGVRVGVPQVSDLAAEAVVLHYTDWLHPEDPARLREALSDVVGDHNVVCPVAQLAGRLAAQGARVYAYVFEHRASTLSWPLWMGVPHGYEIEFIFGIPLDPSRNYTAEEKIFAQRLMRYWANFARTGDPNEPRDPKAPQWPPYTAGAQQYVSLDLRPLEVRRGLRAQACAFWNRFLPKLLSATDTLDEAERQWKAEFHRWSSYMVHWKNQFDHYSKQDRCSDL
T2 sequence (P06276 whole entry): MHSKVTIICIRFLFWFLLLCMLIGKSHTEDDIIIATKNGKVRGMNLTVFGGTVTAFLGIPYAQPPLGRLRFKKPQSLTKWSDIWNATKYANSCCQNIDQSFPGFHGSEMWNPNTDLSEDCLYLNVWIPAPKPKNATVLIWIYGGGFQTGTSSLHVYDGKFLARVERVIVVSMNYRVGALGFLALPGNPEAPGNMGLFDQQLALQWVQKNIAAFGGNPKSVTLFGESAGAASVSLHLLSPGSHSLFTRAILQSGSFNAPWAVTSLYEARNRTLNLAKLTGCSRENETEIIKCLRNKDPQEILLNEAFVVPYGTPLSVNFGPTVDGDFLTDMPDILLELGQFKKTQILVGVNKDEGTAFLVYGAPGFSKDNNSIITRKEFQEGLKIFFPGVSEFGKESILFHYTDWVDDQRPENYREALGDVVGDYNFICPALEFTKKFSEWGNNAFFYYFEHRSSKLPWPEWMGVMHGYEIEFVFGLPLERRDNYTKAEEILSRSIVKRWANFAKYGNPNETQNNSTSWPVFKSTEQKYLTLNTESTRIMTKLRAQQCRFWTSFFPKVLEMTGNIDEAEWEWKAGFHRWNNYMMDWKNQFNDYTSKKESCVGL

O=c1c2ccccc2nc2n1C(C1CN=Cc3[nH]c4ccccc4c31)CC2O (configuration not stated)
IC50 (Acetylcholinesterase [1]): 40.5 µM | IC50 (Cholinesterase [2]): 9.26 µM

COC(=N)c1nc2ccc3ncnc(Nc4ccc(Cl)cc4Cl)c3c2s1
IC50 [3]: 0.0228 µM | IC50 [4]: 0.0888 µM | IC50 [5]: > 10 µM | IC50 [6]: 0.059 µM

CN1C(=O)C2(Nc3cc(Cl)ccc3-c3ccnn32)c2cc(Cl)ccc21 (configuration not stated)
IC50 (Acetylcholinesterase [7]): 88.2 µM | IC50 (Cholinesterase [2]): 219 µM

COc1cc(/C=C/c2nc3cc(Cl)ccc3c(=O)[nH]2)ccc1-n1cnc(C)c1
IC50 [8]: 0.66 µM | IC50 [9]: > 10 µM

COC(=N)c1nc2ccc3ncnc(Nc4ccc(Br)cc4F)c3c2s1
IC50 [3]: > 10 µM | IC50 [10]: > 10 µM | IC50 [11]: 0.16 µM

c1ccc2c(c1)CN1CCCC1=N2
IC50 (Acetylcholinesterase [1]): 2.37 µM | IC50 (Cholinesterase [2]): 0.04 µM

O=C(O)C1=Nc2ccccc2CN1
IC50 (Acetylcholinesterase [1]): 345 µM | IC50 (Cholinesterase [2]): > 1000 µM

COC(=N)c1nc2ccc3ncnc(Nc4ccc5c(c4)OCO5)c3c2s1
IC50 [3]: > 10 µM | IC50 [10]: > 10 µM | IC50 [11]: 0.66 µM

O=c1[nH]c(CCCO)nc2ccccc12
IC50 (Acetylcholinesterase [1]): 155 µM | IC50 (Cholinesterase [2]): 105 µM

Nc1ncc2cc3cnccc3cc2n1
IC50 [12]: 0.8 µM | IC50 [13]: 0.18 µM | inhibition [14]: > 10% | inhibition [15]: > 10%

CSc1nc2ccccc2c(=O)n1-c1c(F)cccc1F
IC50 (Phosphodiesterase 4): 3.5 µM | IC50 [16]: 3.5 µM

COC(=N)c1nc2ccc3ncnc(Nc4ccc(OC)cc4)c3c2s1
IC50 [3]: > 10 µM | IC50 [10]: > 10 µM | IC50 [11]: 0.2 µM

Nc1ncc2ccc3ccncc3c2n1
IC50 [13]: 2.18 µM | inhibition [14]: 100% | inhibition [15]: 98% | inhibition [17]: 98%

CC(C)CC1(CC(C)C)NC(=O)c2ccccc2N1Cc1ccc(Cl)cc1
IC50 (Cholinesterase [18]): 1.56 µM | Ratio IC50 [19]: 2.6

c1ccc2c(c1)CCCN1Cc3cc(OCCCN4CCCCC4)ccc3N=C21
IC50 (Acetylcholinesterase [20]): 0.535 µM | IC50 (Acetylcholinesterase [21]): 0.0571 µM | IC50 (Cholinesterase [22]): 2.67 µM | Ratio IC50 [23]: 47

CC(C)CC1(CC(C)C)NC(=O)c2ccccc2N1Cc1ccccc1
IC50 (Cholinesterase [18]): 2.48 µM | Ratio IC50 [19]: 3.1

C=CCNC(=S)NNc1nc2nc(SC)nn2c2ccccc12
inhibition [24]: 91%

O=C(NCCc1ccc(O)cc1)C1CCC2=Nc3ccc(Br)cc3CN21 (configuration not stated)
viability at 100 µM (SH-SY5Y): 78.6%

O=c1c2ccccc2nc2n1CCC2O (configuration not stated)
IC50 (Acetylcholinesterase [1]): 76.6 µM | IC50 (Cholinesterase [2]): 10.2 µM

CC1(c2ccc(Cl)cc2)NC(=O)c2cc(Br)cc(Br)c2N1 (configuration not stated)
IC50 (Acetylcholinesterase [25]): 1.6 µM | IC50 (Cholinesterase [18]): 3.7 µM | Ratio IC50 [19]: 2.3

Cc1ccccc1-n1c(SCC(=O)N/N=C/c2ccc(Br)cc2)nc2ccccc2c1=O
IC50 (Acetylcholinesterase [26]): 210 µM | inhibition (Cholinesterase [27]): 6.8%

CSc1nc2nc(NNC(=S)NC3CCCCC3)c3ccccc3n2n1
inhibition [24]: 91.2%

COc1cc2c(Nc3ccc(C(=O)/C=C/c4nc(C)c(C)nc4C)cc3)ncnc2c(OC)c1OC
IC50 (Acetylcholinesterase [28]): 0.1 µM | IC50 (Cholinesterase [29]): 22.4 µM | IC50 [30]: 47.4 µM | IC50 [31]: 26.7 µM
